Some test systems named below: CCRF-CEM leukemia; DU-145 prostate; HCC-2998 colon; HOP-62 NSCLC; KM12 colon; MALME-3M melanoma; RXF 393 renal; SF-539 CNS; SN12C renal; SW-620 colon.
Test in all cases: DTP human tumour cell line panel, 48 h

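Exposure lasted 48 hours, with cells grown in 96-well plates and compounds tested at five concentrations. Here, GI50 denotes the concentration required for 50% inhibition of growth. TGI denotes the concentration required for complete inhibition of growth.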

From PubChem BioAssay (NCI) come the findings set out here.

Usually GI50 stands for the concentration giving 50% growth inhibition. By TGI is commonly meant the concentration giving total growth inhibition. Read a low TGI as more potent growth arrest.

Consider `COc1ccc(C(=O)CC2(O)C(=O)Nc3c(Cl)ccc(Cl)c32)cc1` (stereo unspecified), for which the GI50 with CCRF-CEM leukemia was 2.03 µM; in the assay on DU-145 prostate, 3.44 µM; in the assay with HCC-2998 colon it was 5.24 µM; in the assay with HOP-62 NSCLC it was 3.42 µM; in the assay with KM12 colon, 0.732 µM; in the assay with MALME-3M melanoma it was 8.96 µM. Besides, the GI50 in the assay with RXF 393 renal was 3.07 µM; with SF-539 CNS, 1.64 µM; with SN12C renal, 4.6 µM; in the assay with SW-620 colon it was 0.503 µM. In addition, the TGI with CCRF-CEM leukemia was above 26.3 µM; with DU-145 prostate, above 37.6 µM; in the assay on HCC-2998 colon, above 54 µM; with HOP-62 NSCLC, above 100 µM; in the assay with KM12 colon it was above 59.2 µM; with MALME-3M melanoma it was above 100 µM. Moreover, the TGI with RXF 393 renal was above 100 µM; with SF-539 CNS, 6.96 µM; in the assay on SN12C renal, above 95.1 µM; in the assay on SW-620 colon, above 100 µM.
On to `C#Cc1cccc(NC(=O)Nc2ccccc2NC(=O)CCl)c1`, for which the GI50 in the assay on CCRF-CEM leukemia was 20.8 µM; in the assay on DU-145 prostate it was 28.9 µM; with HCC-2998 colon, 15.3 µM; in the assay with HOP-62 NSCLC, 25.9 µM; in the assay with KM12 colon, 14.2 µM; with MALME-3M melanoma it was 19.5 µM. Besides, the GI50 is 12.1 µM in the assay on RXF 393 renal, 13.8 µM with SF-539 CNS, 15.1 µM with SN12C renal and 19.3 µM with SW-620 colon. In addition, the TGI in the assay with CCRF-CEM leukemia is above 82.5 µM; in the assay on DU-145 prostate, above 82.5 µM; in the assay with HCC-2998 colon, 29.8 µM; in the assay on HOP-62 NSCLC, above 82.5 µM; in the assay on KM12 colon, 26.5 µM; in the assay with MALME-3M melanoma, 56.7 µM. The TGI came out at 26.1 µM in the assay on RXF 393 renal, 32.4 µM in the assay with SF-539 CNS, 33.5 µM with SN12C renal and 45.2 µM in the assay with SW-620 colon.
In the case of `CCOC(=O)c1cc2c(n1Cc1cccc(OC)c1)-c1oncc1CC2`, the GI50 with CCRF-CEM leukemia was 1.43 µM; in the assay with DU-145 prostate it was 2.27 µM; with HCC-2998 colon it was 1.94 µM; in the assay on HOP-62 NSCLC it was 0.86 µM; with KM12 colon it was 0.55 µM; in the assay on MALME-3M melanoma it was 0.571 µM. The GI50 in the assay on RXF 393 renal was 1.72 µM; in the assay on SF-539 CNS, 1.16 µM; in the assay on SN12C renal it was 13.5 µM; in the assay with SW-620 colon it was 0.433 µM. The total growth inhibition concentration (TGI) in the assay with CCRF-CEM leukemia is above 100 µM; in the assay with DU-145 prostate, above 100 µM; in the assay on HCC-2998 colon, 29.6 µM; with HOP-62 NSCLC, above 100 µM; in the assay on KM12 colon it was above 100 µM; with MALME-3M melanoma it was 76.5 µM. In addition, the TGI in the assay on RXF 393 renal was 35.9 µM; with SF-539 CNS, 7.35 µM; with SN12C renal, above 100 µM; with SW-620 colon it was above 100 µM.
With `COc1ccc([C@H]2c3cc(OC)c(OC)cc3C=C(C=O)C2CO)cc1OC` (stereo partly specified), the GI50 was 19 µM in the assay on CCRF-CEM leukemia; 3.51 µM with DU-145 prostate; 12.1 µM in the assay on HCC-2998 colon; 4.79 µM in the assay with HOP-62 NSCLC; 2.9 µM with KM12 colon; 1.84 µM in the assay on MALME-3M melanoma. The GI50 in the assay on RXF 393 renal is 3.27 µM; with SF-539 CNS it was 3.33 µM; with SN12C renal it was 5.7 µM; with SW-620 colon, 3.49 µM. The total growth inhibition concentration (TGI) with CCRF-CEM leukemia was above 100 µM; in the assay on DU-145 prostate, 21.8 µM; in the assay on HCC-2998 colon, 76.3 µM; in the assay with HOP-62 NSCLC it was above 100 µM; in the assay on KM12 colon it was 43.6 µM; in the assay with MALME-3M melanoma it was 7.43 µM. Further, the TGI with RXF 393 renal, in the assay with SF-539 CNS, with SN12C renal and in the assay with SW-620 colon was above 100 µM throughout.
In the case of `Clc1ccc(Cl)c(N/N=C\c2c[nH]c3ccccc23)c1`, the GI50 in the assay with CCRF-CEM leukemia is 0.107 µM; with DU-145 prostate, 10.7 µM; with HCC-2998 colon, 13.6 µM; in the assay on HOP-62 NSCLC, 15.2 µM; with KM12 colon, 7.45 µM; in the assay with MALME-3M melanoma, 20.3 µM. In addition, the GI50 with RXF 393 renal was 10.3 µM; with SF-539 CNS, 8.16 µM; in the assay on SN12C renal, 7.15 µM; with SW-620 colon, 10.3 µM. Moreover, the TGI in the assay on CCRF-CEM leukemia was found to be 11.7 µM; in the assay on DU-145 prostate, 22.6 µM; in the assay on HCC-2998 colon, 29.9 µM; in the assay with HOP-62 NSCLC, 28.4 µM; in the assay on KM12 colon it was 26.3 µM; in the assay on MALME-3M melanoma, 39.8 µM. The TGI came out at 24.8 µM in the assay on RXF 393 renal, 21 µM in the assay on SF-539 CNS, 22.3 µM with SN12C renal and 24.6 µM in the assay on SW-620 colon.
As for `C=C1C(=O)O[C@@H]2[C@@H]3O[C@@](C)(CC/C=C(\C)CCC[C@@H]2C)[C@H](O)C[C@@H]13`, the GI50 was 3.01 µM in the assay on CCRF-CEM leukemia; 1.76 µM with MALME-3M melanoma; 1.79 µM in the assay on RXF 393 renal; 2.7 µM in the assay with SF-539 CNS; 2.61 µM in the assay with SN12C renal; 2.03 µM in the assay with SW-620 colon. Besides, the TGI in the assay with CCRF-CEM leukemia worked out at 21.3 µM; in the assay on DU-145 prostate it was 19.4 µM; in the assay with HCC-2998 colon, 18 µM; in the assay on HOP-62 NSCLC, 24 µM; with KM12 colon, 24.6 µM; in the assay with MALME-3M melanoma it was 4.11 µM. The TGI amounted to 3.58 µM with RXF 393 renal, 8.9 µM in the assay with SF-539 CNS, 10.1 µM in the assay with SN12C renal and 3.96 µM in the assay on SW-620 colon.
